One test addresses T1, human IGF1R (Homo sapiens, UniProt P08069).
T1 construct: expressed in transfected cells; host or cells: R+ cells (R- mouse fibroblasts transfected with human IGF1R)
Put plainly: Inhibition of insulin-like growth factor-1 receptor phosphorylation in R+ cells. Format: cell-based. The settings on record: 30 nM IGF1, read-out: IGF cell class. On the procedure:
This immunofluorescence end point cell assay measures the ability of a test compound to reduce the measured levels of IGF1R phosphorylation after IGF1 stimulation in R^+ cells. […] were derived by transfection of R^− mouse fibroblast cells with human IGF1R.
(+5% CO2) incubator for 30 minutes.
Following the compound treatment, the R^+ cells were stimulated with a final concentration of 30 nM IGF1 (Gropep 1M001) for 20 minutes at 37° C. […] Plates were incubated for 1 hour at room temperature. […] Additionally, in-house antibodies raised against phospho […] were also used at a suitable titre determined for each batch.
The plates were incubated at room temperature for one hour. […] After addition of 100 μl/well PBS the plates were sealed with a black seal.
The Green Fluorescent phospho IGF1R -associated signal in each well was measured using an Acumen Explorer HTS Reader (TTP Labtech Ltd., Cambridge). […] The instrument is a laser-scanning fluorescence microplate cytometer, which samples the well at regular intervals and uses threshold algorithms to identify all fluorescent intensities above the solution background without the need to generate and analyse an image. These fluorescent objects can be quantified and provide a measure of the phospho IGF1R levels in cells. Fluorescence dose response data obtained with each compound was exported into a suitable software package (such as Origin) to perform curve fitting analysis. Phospho-IGF1R levels in response to compound treatment versus stimulated and unstimulated controls were expressed as an IC50 value.

In a further test the test system is Erk phosphorylation. In words: Growth factor (bFGF) stimulated Erk phosphorylation in NIH 3T3 cells. The settings on record: Mus musculus, NIH3T3, NIH 3T3 cells, 3 ng/ml bFGF.
For test [1], the target named is T2, FGFR1 IIIc (Homo sapiens, UniProt P11362).
T2 construct: host or cells: Cos-1
T2 sequence (P11362 22-822): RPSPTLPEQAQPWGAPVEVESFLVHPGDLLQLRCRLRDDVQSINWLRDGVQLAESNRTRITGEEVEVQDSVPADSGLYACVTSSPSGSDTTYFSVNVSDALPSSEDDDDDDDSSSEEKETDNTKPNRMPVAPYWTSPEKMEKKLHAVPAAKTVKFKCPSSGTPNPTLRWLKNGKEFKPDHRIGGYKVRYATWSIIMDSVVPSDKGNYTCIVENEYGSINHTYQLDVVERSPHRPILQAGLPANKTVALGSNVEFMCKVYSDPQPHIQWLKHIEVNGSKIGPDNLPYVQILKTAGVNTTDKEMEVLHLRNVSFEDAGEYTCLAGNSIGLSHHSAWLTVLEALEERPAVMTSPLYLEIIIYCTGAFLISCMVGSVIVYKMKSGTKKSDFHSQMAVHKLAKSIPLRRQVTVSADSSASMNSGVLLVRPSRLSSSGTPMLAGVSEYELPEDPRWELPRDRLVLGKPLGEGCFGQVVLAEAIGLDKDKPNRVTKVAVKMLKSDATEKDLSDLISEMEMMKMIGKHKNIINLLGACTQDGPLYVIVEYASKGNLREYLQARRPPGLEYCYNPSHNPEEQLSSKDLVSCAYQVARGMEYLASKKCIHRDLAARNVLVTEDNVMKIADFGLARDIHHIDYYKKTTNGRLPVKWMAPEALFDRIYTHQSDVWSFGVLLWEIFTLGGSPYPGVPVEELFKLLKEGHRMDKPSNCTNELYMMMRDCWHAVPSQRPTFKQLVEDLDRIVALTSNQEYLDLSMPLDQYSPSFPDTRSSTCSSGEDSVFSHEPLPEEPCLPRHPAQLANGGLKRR
In words: Cell based inhibition of transiently expressed FGFR1 IIIc phosphorylation via use of ECHO technology (Cos-1 cells). To be noted: Cos-1 cells, phospho-FGFR1, ECHO dosing; upper bound of bin; read-out: IC50. On the procedure:
(§1) This assay is designed to detect inhibitors of transiently expressed FGFR1 phosphorylation by antibody staining of fixed cells detected using ArrayScan technology.
To undertake the assay, Cos-1 cells were harvested at 90-95% confluence for cell transfection. For each 96-well plate, 24μl Lipofectamine 2000 was added to 809 ul OptiMEM and incubated at room temperature for 5 minutes. […] Equal volumes of DNA and Lipofectamine 2000 were combined (DNA: Lipid=1:1.2 ratio) and incubated at room temperature for 20 minutes.
The harvested Cos-1 cells are counted using a coulter counter and diluted further with 1% FCS/DMEM to 2.5×10^5 cells/ml. For each 96-well, 8.33 ml cells were required. […] 70 μl of media was aspirated from the assay plate using the Quadra before the plate was transferred onto the ECHO 550. […] Compound transfer to the assay plate on the ECHO 550 was at concentration ranges 1)10 μM, 2) 3 μM, 3) 1 μM, 4) 0.3 μM, 5) 0.1 μM, 6) […].
The plates were gently tapped to mix compound in with the cell media and left to incubate at 37° C. with 5% CO2 for 1 hour.
Media was removed from the wells using vacuum aspiration; cells were fixed by adding 50 μl of 100% methanol to each well and incubated at room temperature for 20 minutes.
(§2) The plates were read on an Arrayscan (Cellomics).

The next test deals with FGFR1 kinase (Homo sapiens, UniProt P11362). Put plainly: Kinase assay (using Caliper technology). Format: biochemical. To be noted: FGFR1 kinase, Caliper; upper bound of bin; read-out: IC50. On the procedure: To determine inhibition of FGFR activity, kinase assays were conducted using Caliper technology.
FGFR1 kinase, sequence (P11362 22-822): as above
Kinase activity assays were performed in Greiner 384-well low volume plates, with a total reaction volume of 12ul per well. […] The substrate for each assay was a custom peptide with fluorescent tag (13 amino acids in length) the sequence of which was specific for FGFR1 kinase.
Compounds were serially diluted in 5% (v/v) DMSO, before being added to assay plates.
Assay plates were incubated at room temperature for 1.5 h, before the reaction was stopped with the addition of buffer [comprising: 100 mM HEPES—pH7.5, 0.033% Brij-35, 0.22% Caliper Coating Reagent #3, 88mM EDTA, 5% DMSO]. Stopped assay plates were then read using the Caliper LabChip® LC3000 (which uses microfludics to measure a shift in mobility between fluorescent labelled peptide and the FGFR1 kinase—phosphorylated form of this peptide).

Test [2] has as its target T2, FGFR1 IIIc. In words: Cell based inhibition of transiently expressed FGFR1 IIIc phosphorylation (Cos-1 cells). To be noted: Cos-1 cells, phospho-FGFR1; upper bound of bin; read-out: IC50. On the procedure: as §1
To undertake the assay, Cos-1 cells were harvested at 90-95% confluence for cell transfection. For each 96-well plate, 24 ul Lipofectamine 2000 was added to 809 ul OptiMEM and incubated at room temperature for 5 minutes. […] Equal volumes of DNA and Lipofectamine 2000 were combined (DNA: Lipid=1:1.2 ratio) and incubated at room temperature for 20 minutes.
The harvested Cos-1 cells are counted using a coulter counter and diluted further with 1% FCS/DMEM to 2.5×10^5 cells/ml. For each 96-well, 8.33 ml cells were required. […] Media was removed from the wells using vacuum aspiration; cells were fixed by adding 50μl of 100% methanol to each well and incubated at room temperature for 20 minutes.
as §2

Counter-ions that a name gives are not always drawn. Where only a bound is given, the exact number is not on record here.

T1 sequence (P08069 31-1367): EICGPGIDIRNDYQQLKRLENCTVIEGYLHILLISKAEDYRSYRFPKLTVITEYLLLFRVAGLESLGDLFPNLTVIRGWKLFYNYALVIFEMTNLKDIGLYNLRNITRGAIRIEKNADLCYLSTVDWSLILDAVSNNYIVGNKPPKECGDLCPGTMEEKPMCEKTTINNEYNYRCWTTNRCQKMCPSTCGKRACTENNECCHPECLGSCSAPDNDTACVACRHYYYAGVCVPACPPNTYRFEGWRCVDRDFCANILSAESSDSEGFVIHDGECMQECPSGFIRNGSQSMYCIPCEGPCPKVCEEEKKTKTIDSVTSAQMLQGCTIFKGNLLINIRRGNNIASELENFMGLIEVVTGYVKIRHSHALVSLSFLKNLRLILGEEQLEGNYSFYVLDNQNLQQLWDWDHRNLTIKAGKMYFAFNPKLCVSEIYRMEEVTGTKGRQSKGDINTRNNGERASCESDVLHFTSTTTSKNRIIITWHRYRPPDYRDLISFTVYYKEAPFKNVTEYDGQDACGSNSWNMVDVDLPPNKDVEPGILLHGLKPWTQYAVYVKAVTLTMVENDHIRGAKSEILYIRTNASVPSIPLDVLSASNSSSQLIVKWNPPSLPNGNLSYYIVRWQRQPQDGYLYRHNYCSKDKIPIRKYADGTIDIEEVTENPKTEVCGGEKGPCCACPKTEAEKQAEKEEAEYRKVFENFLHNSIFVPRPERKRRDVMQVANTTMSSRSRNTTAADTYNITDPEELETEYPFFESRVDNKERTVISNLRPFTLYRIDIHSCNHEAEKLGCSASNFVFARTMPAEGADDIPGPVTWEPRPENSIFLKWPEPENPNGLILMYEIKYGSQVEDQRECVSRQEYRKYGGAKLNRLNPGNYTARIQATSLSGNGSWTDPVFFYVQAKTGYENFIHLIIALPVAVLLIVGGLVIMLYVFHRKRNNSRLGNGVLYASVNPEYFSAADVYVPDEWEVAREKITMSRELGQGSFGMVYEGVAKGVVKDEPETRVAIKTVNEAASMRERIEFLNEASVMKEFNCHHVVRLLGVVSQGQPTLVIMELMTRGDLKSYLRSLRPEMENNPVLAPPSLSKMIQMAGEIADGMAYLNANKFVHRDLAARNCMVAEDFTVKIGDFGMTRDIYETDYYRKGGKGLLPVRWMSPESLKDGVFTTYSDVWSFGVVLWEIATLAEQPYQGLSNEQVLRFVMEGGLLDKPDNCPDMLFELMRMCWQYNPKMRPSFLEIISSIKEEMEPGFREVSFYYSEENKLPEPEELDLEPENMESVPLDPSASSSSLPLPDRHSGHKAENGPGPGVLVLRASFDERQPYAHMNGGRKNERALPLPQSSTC

`COc1cc(OC)cc(OCc2cc(Nc3ccnc(NCc4cc(C)no4)n3)n[nH]2)c1` [Example 44, N′-[5-[(3,5-Dimethoxyphenoxy)methyl]-2H-pyrazol-3-yl]-N-[(3-methyl1,2-oxazol-5-yl)methyl]pyrimidine-2,4-diamine]: the IC50 on human IGF1R is over 10 µM; with Erk phosphorylation, under 0.2 µM; on FGFR1 IIIc [1] it was under 1 µM; at FGFR1 kinase, under 0.2 µM.
Take `COc1ccc(OC)c(CCc2cc(Nc3ccnc(NCc4cc(C)no4)n3)n[nH]2)c1` [Example 45, N′-[5-[2-(2,5-dimethoxyphenyl)ethyl]-2H-pyrazol-3-yl]-N-[(3-methyl1,2-oxazol-5-yl)methyl]pyrimidine-2,4-diamine]: the IC50 on FGFR1 IIIc [2] was under 10 µM; on FGFR1 kinase, under 1 µM.
On to `CNC(=O)c1cc(CNc2nccc(Nc3cc(OC(C)C)n[nH]3)n2)on1` [Example 79, N-methyl-5-[[[4-[(5-propan-2-yloxy-2H-pyrazol-3-yl)amino]pyrimidin-2-yl]amino]methyl]1,2-oxazole-3-carboxamide], for which the IC50 is under 10 µM in the test with Erk phosphorylation (upper bound of bin), under 10 µM at FGFR1 IIIc [1] and under 0.2 µM on FGFR1 kinase.
For the compound `CC(C)Oc1cc(Nc2ccnc(NCc3cc(-c4ncccn4)no3)n2)n[nH]1` [Example 82, N′-(5-propan-2-yloxy-2H-pyrazol-3-yl)-N-[(^3-pyrimidin-2-yl-1,2-oxazol-5-yl)methyl]pyrimidine-2,4-diamine], the values for the IC50 with Erk phosphorylation (upper bound of bin), on FGFR1 IIIc [1] and at FGFR1 kinase were under 1 µM, under 1 µM and under 0.2 µM, respectively.
Take `CC(C)Oc1cc(Nc2ccnc(NCc3cc(C4CCCO4)no3)n2)[nH]n1` (stereo not shown) [Example 84, N-[[3-(oxolan-2-yl)1,2-oxazol-5-yl]methyl]-N′-(5-propan-2-yloxy-2H-pyrazol-3-yl)pyrimidine-2,4-diamine]: the IC50 with Erk phosphorylation was under 0.2 µM; at FGFR1 IIIc [1] it was under 1 µM; on FGFR1 kinase, under 0.2 µM.
As for `Cc1cc(CNc2nccc(Nc3cc(OCc4cccc(N5CCOCC5)c4)[nH]n3)n2)on1` [Example 87, N-[(3-methyl1,2-oxazol-5-yl)methyl]-N′-[5-[(3-morpholin-4-ylphenyl)methoxy]-2H-pyrazol-3-yl]pyrimidine-2,4-diamine], the IC50 on human IGF1R was over 10 µM; in the test on Erk phosphorylation (upper bound of bin) it was under 10 µM; at FGFR1 kinase, under 10 µM.
For the compound `Cc1cc(CNc2nccc(Nc3cc(OCc4cccc(NC(=O)OC(C)(C)C)c4)[nH]n3)n2)on1` [Example 89, tert-Butyl N-[3-[[5-[[2-[(3-methyl1,2-oxazol-5-yl)methylamino]pyrimidin-4-yl]amino]-1H-pyrazol-3-yl]oxymethyl]phenyl]carbamate], the IC50 is 1 to 10 µM on human IGF1R, under 1 µM with Erk phosphorylation (upper bound of bin) and under 1 µM on FGFR1 kinase.
As to `Cc1cc(CNc2nccc(Nc3cc(OCc4cccc(C(=O)N5CCOCC5)c4)[nH]n3)n2)on1` [Example 90, [3-[[5-[[2-[(3-methyl1,2-oxazol-5-yl)methylamino]pyrimidin-4-yl]amino]-1H-pyrazol-3-yl]oxymethyl]phenyl]-morpholin-4-yl-methanone], the IC50 is over 10 µM on human IGF1R, under 10 µM in the test with Erk phosphorylation (upper bound of bin) and under 10 µM on FGFR1 kinase.
For the compound `Cc1cc(CNc2nccc(Nc3cc(OCc4cccc(C#N)c4)[nH]n3)n2)on1` [Example 92, 3-[[5-[[2-[(3-methyl1,2-oxazol-5-yl)methylamino]pyrimidin-4-yl]amino]-2H-pyrazol-3-yl]oxymethyl]benzonitrile hydrochloride], the figures for the IC50 at human IGF1R, in the test with Erk phosphorylation (upper bound of bin) and on FGFR1 kinase were over 10 µM, under 1 µM and under 10 µM, respectively.
For `Cc1cc(CNc2nccc(Nc3cc(OCc4ccc(C(F)(F)F)cc4)[nH]n3)n2)on1` [Example 96, N-[(3-methyl1,2-oxazol-5-yl)methyl]-N′-[5-[[4-(trifluoromethyl)phenyl]methoxy]-1H-pyrazol-3-yl]pyrimidine-2,4-diamine hydrochloride], the IC50 on human IGF1R was over 10 µM; with Erk phosphorylation (upper bound of bin), under 10 µM; on FGFR1 kinase, under 10 µM.
`Cc1cc(CNc2nccc(Nc3cc(-c4cccs4)[nH]n3)n2)on1` [Example 104, N-[(3-methyl1,2-oxazol-5-yl)methyl]-N′-(5-thiophen-2-yl-1H-pyrazol-3-yl)pyrimidine-2,4-diamine]: the IC50 is 1 to 10 µM at human IGF1R, under 1 µM with Erk phosphorylation (upper bound of bin) and under 1 µM at FGFR1 kinase.
As to `Cc1cc(CNc2nccc(Nc3cc(CCc4nc(-c5ccccc5)no4)[nH]n3)n2)on1` [Example 106, N-[(3-methyl1,2-oxazol-5-yl)methyl]-N′-[5-[2-(3-phenyl-1,2,4-oxadiazol-5-yl)ethyl]-2H-pyrazol-3-yl]pyrimidine-2,4-diamine], the results for the IC50 on human IGF1R, in the test on Erk phosphorylation (upper bound of bin) and at FGFR1 kinase were 1 to 10 µM, under 1 µM and under 1 µM, respectively.
Regarding `Cc1cc(CNc2nccc(Nc3cc(CCc4ccco4)[nH]n3)n2)on1` [Example 107, N′-[5-[2-(2-furyl)ethyl]-2H-pyrazol-3-yl]-N-[(3-methyl1,2-oxazol-5-yl)methyl]pyrimidine-2,4-diamine], the figures for the IC50 on human IGF1R, in the test with Erk phosphorylation (upper bound of bin) and at FGFR1 kinase were over 10 µM, under 1 µM and under 0.2 µM, respectively.
For the compound `Cc1cc(CNc2nccc(Nc3cc(C4CCOCC4)[nH]n3)n2)on1` [Example 114, N-[(3-methyl1,2-oxazol-5-yl)methyl]-N′-[5-(oxan-4-yl)-1H-pyrazol-3-yl]pyrimidine-2,4-diamine hydrochloride], the IC50 on human IGF1R is over 10 µM; in the test with Erk phosphorylation (upper bound of bin), under 10 µM; at FGFR1 kinase it was under 10 µM.
For `Cc1cc(CNc2nccc(Nc3cc(CCc4cccnc4)[nH]n3)n2)on1` [Example 115, N-[(3-methyl1,2-oxazol-5-yl)methyl]-N′-[5-(2-pyridin-3-ylethyl)-2H-pyrazol-3-yl]pyrimidine-2,4-diamine], the IC50 on human IGF1R was over 10 µM; in the test on Erk phosphorylation (upper bound of bin) it was under 10 µM; on FGFR1 kinase, under 1 µM.
Consider `Cc1cc(CNc2nccc(Nc3cc(CCc4cn(C)cn4)[nH]n3)n2)on1` [Example 119, N′-[5-[2-(1-methylimidazol-4-yl)ethyl]-1H-pyrazol-3-yl]-N-[(3-methyl-1,2-oxazol-5-yl)methyl]pyrimidine-2,4-diamine], for which the results for the IC50 on FGFR1 IIIc [2] and on FGFR1 kinase were under 30 µM and under 10 µM, respectively.
The like results for `Cc1cc(CNc2nccc(Nc3cc(CCc4ccc(CN(C)C)o4)[nH]n3)n2)on1` [Example 121, N′-[5-[2-[5-(dimethylaminomethyl)-2-furyl]ethyl]-1H-pyrazol-3-yl]-N-[(3-methyl-1,2-oxazol-5-yl)methyl]pyrimidine-2,4-diamine] were, in that order, under 30 µM and under 1 µM.

The values above are taken from patent US20080004302A1, “Novel Compounds” (ASTRAZENECA AB, priority 2006, published 2008).
